Assay results taken from PubChem BioAssay (NCI).
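In this assay, cells in 96-well plates receive the compound at five concentrations for 48 hours. Endpoints are linearly interpolated between the surrounding concentrations. At the GI50, growth is halved. TGI: concentration producing complete growth inhibition.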

Assays:
Experiment in all cases: NCI-60 cell line screen, 48 h
NCI/ADR-RES ovarian = system: NCI/ADR-RES ovarian
SN12C renal = system: SN12C renal
HT29 colon = system: HT29 colon
UACC-62 melanoma = system: UACC-62 melanoma
DU-145 prostate = system: DU-145 prostate
MALME-3M melanoma = system: MALME-3M melanoma
UO-31 renal = system: UO-31 renal
OVCAR-4 ovarian = system: OVCAR-4 ovarian
K-562 leukemia = system: K-562 leukemia
HCC-2998 colon = system: HCC-2998 colon
SK-MEL-2 melanoma = system: SK-MEL-2 melanoma
MOLT-4 leukemia = system: MOLT-4 leukemia
HOP-62 NSCLC = system: HOP-62 NSCLC
KM12 colon = system: KM12 colon
NCI-H226 lung = system: NCI-H226 lung
MDA-MB-435 = system: MDA-MB-435
786-0 renal = system: 786-0 renal
T-47D breast = system: T-47D breast
RPMI-8226 leukemia = system: RPMI-8226 leukemia
COLO 205 colon = system: COLO 205 colon
SR leukemia = system: SR leukemia
SF-539 CNS = system: SF-539 CNS
BT-549 breast = system: BT-549 breast
OVCAR-5 ovarian = system: OVCAR-5 ovarian
HOP-92 NSCLC = system: HOP-92 NSCLC
PC-3 prostate = system: PC-3 prostate
OVCAR-3 ovarian = system: OVCAR-3 ovarian
CCRF-CEM leukemia = system: CCRF-CEM leukemia
SF-268 CNS = system: SF-268 CNS
NCI-H522 lung = system: NCI-H522 lung
MCF7 breast = system: MCF7 breast
U251 CNS = system: U251 CNS
TK-10 renal = system: TK-10 renal
IGROV1 ovarian = system: IGROV1 ovarian
MDA-MB-231 breast = system: MDA-MB-231 breast
NCI-H23 lung = system: NCI-H23 lung
HS 578T breast = system: HS 578T breast
NCI-H460 lung = system: NCI-H460 lung
LOX IMVI melanoma = system: LOX IMVI melanoma
HL-60(TB) leukemia = system: HL-60(TB) leukemia
HCT-116 colon = system: HCT-116 colon
SW-620 colon = system: SW-620 colon
SK-OV-3 ovarian = system: SK-OV-3 ovarian
A498 renal = system: A498 renal
ACHN renal = system: ACHN renal
M14 melanoma = system: M14 melanoma
RXF 393 renal = system: RXF 393 renal
OVCAR-8 ovarian = system: OVCAR-8 ovarian
SK-MEL-28 melanoma = system: SK-MEL-28 melanoma
HCT-15 colon = system: HCT-15 colon
SNB-75 CNS = system: SNB-75 CNS
SK-MEL-5 melanoma = system: SK-MEL-5 melanoma
CAKI-1 renal = system: CAKI-1 renal
SNB-19 CNS = system: SNB-19 CNS

Clc1cc2c(cc1Cl)Oc1cc(Cl)c(Cl)cc1O2 was tested, and the GI50 (NCI/ADR-RES ovarian) was over 625 nM, the TGI (NCI/ADR-RES ovarian) was over 625 nM and the GI50 (SN12C renal) was over 625 nM. The TGI (SN12C renal) was over 625 nM, the GI50 (HT29 colon) was over 625 nM and the TGI (HT29 colon) was over 625 nM. For the same molecule, the GI50 (UACC-62 melanoma) was over 625 nM, the TGI (UACC-62 melanoma) was over 625 nM and the GI50 (DU-145 prostate) was over 625 nM. It also gave a TGI (DU-145 prostate) of over 625 nM, a GI50 (MALME-3M melanoma) of over 625 nM and a TGI (MALME-3M melanoma) of over 625 nM. The GI50 (UO-31 renal) was 209 nM, the TGI (UO-31 renal) was over 625 nM and the GI50 (OVCAR-4 ovarian) was over 625 nM. The TGI (OVCAR-4 ovarian) was over 625 nM, the GI50 (K-562 leukemia) was over 625 nM and the TGI (K-562 leukemia) was over 625 nM. It also gave a GI50 (HCC-2998 colon) of over 625 nM, a TGI (HCC-2998 colon) of over 625 nM and a GI50 (SK-MEL-2 melanoma) of over 625 nM. It also gave a TGI (SK-MEL-2 melanoma) of over 625 nM, a GI50 (MOLT-4 leukemia) of over 625 nM and a TGI (MOLT-4 leukemia) of over 625 nM. It also gave a GI50 (HOP-62 NSCLC) of over 625 nM, a TGI (HOP-62 NSCLC) of over 625 nM and a GI50 (KM12 colon) of over 625 nM. The TGI (KM12 colon) was over 625 nM, the GI50 (NCI-H226 lung) was over 625 nM and the TGI (NCI-H226 lung) was over 625 nM. It also gave a GI50 (MDA-MB-435) of over 625 nM, a TGI (MDA-MB-435) of over 625 nM and a GI50 (786-0 renal) of over 625 nM. It also gave a TGI (786-0 renal) of over 625 nM, a GI50 (T-47D breast) of over 625 nM and a TGI (T-47D breast) of over 625 nM. The GI50 (RPMI-8226 leukemia) was over 625 nM, the TGI (RPMI-8226 leukemia) was over 625 nM and the GI50 (COLO 205 colon) was over 625 nM. For the same molecule, the TGI (COLO 205 colon) was over 625 nM, the GI50 (SR leukemia) was over 625 nM and the TGI (SR leukemia) was over 625 nM. The GI50 (SF-539 CNS) was over 625 nM, the TGI (SF-539 CNS) was over 625 nM and the GI50 (BT-549 breast) was over 625 nM. The TGI (BT-549 breast) was over 625 nM, the GI50 (OVCAR-5 ovarian) was over 625 nM and the TGI (OVCAR-5 ovarian) was over 625 nM. For the same molecule, the GI50 (HOP-92 NSCLC) was over 625 nM, the TGI (HOP-92 NSCLC) was over 625 nM and the GI50 (PC-3 prostate) was over 625 nM. For the same molecule, the TGI (PC-3 prostate) was over 625 nM, the GI50 (OVCAR-3 ovarian) was over 625 nM and the TGI (OVCAR-3 ovarian) was over 625 nM. For the same molecule, the GI50 (CCRF-CEM leukemia) was over 625 nM, the TGI (CCRF-CEM leukemia) was over 625 nM and the GI50 (SF-268 CNS) was over 625 nM. For the same molecule, the TGI (SF-268 CNS) was over 625 nM, the GI50 (NCI-H522 lung) was over 625 nM and the TGI (NCI-H522 lung) was over 625 nM. For the same molecule, the GI50 (MCF7 breast) was over 625 nM, the TGI (MCF7 breast) was over 625 nM and the GI50 (U251 CNS) was over 625 nM. For the same molecule, the TGI (U251 CNS) was over 625 nM, the GI50 (TK-10 renal) was over 625 nM and the TGI (TK-10 renal) was over 625 nM. It also gave a GI50 (IGROV1 ovarian) of over 625 nM, a TGI (IGROV1 ovarian) of over 625 nM and a GI50 (MDA-MB-231 breast) of over 625 nM. For the same molecule, the TGI (MDA-MB-231 breast) was over 625 nM, the GI50 (NCI-H23 lung) was over 625 nM and the TGI (NCI-H23 lung) was over 625 nM. It also gave a GI50 (HS 578T breast) of over 625 nM, a TGI (HS 578T breast) of over 625 nM and a GI50 (NCI-H460 lung) of over 625 nM. The TGI (NCI-H460 lung) was over 625 nM, the GI50 (LOX IMVI melanoma) was over 625 nM and the TGI (LOX IMVI melanoma) was over 625 nM. The GI50 (HL-60(TB) leukemia) was over 625 nM, the TGI (HL-60(TB) leukemia) was over 625 nM and the GI50 (HCT-116 colon) was over 625 nM. It also gave a TGI (HCT-116 colon) of over 625 nM, a GI50 (SW-620 colon) of over 625 nM and a TGI (SW-620 colon) of over 625 nM. The GI50 (SK-OV-3 ovarian) was over 625 nM, the TGI (SK-OV-3 ovarian) was over 625 nM and the GI50 (A498 renal) was over 625 nM. The TGI (A498 renal) was over 625 nM, the GI50 (ACHN renal) was over 625 nM and the TGI (ACHN renal) was over 625 nM. For the same molecule, the GI50 (M14 melanoma) was over 625 nM, the TGI (M14 melanoma) was over 625 nM and the GI50 (RXF 393 renal) was over 625 nM. It also gave a TGI (RXF 393 renal) of over 625 nM, a GI50 (OVCAR-8 ovarian) of over 625 nM and a TGI (OVCAR-8 ovarian) of over 625 nM. For the same molecule, the GI50 (SK-MEL-28 melanoma) was over 625 nM, the TGI (SK-MEL-28 melanoma) was over 625 nM and the GI50 (HCT-15 colon) was over 625 nM. For the same molecule, the TGI (HCT-15 colon) was over 625 nM, the GI50 (SNB-75 CNS) was 304 nM and the TGI (SNB-75 CNS) was over 625 nM. The GI50 (SK-MEL-5 melanoma) was over 625 nM, the TGI (SK-MEL-5 melanoma) was over 625 nM and the GI50 (CAKI-1 renal) was over 625 nM. It also gave a TGI (CAKI-1 renal) of over 625 nM, a GI50 (SNB-19 CNS) of over 625 nM and a TGI (SNB-19 CNS) of over 625 nM.
